Experimental findings from patent US9579376B2 (priority 2009, dated 2017) are described below.

The test system of one experiment is CD8+ T cells. As to the kind of experiment: IFN-γ ELISpot deconvolution and follow-up ICS to identify single peptide epitopes. The class given is cell-based, human. The settings on record: for antigenicity for persons with HLA A*0201, A*0202 or other HLA-A2 subtypes: Example 1, T-cells from infected patients; for # SUBJECTS: number of HSV-2 seropositive subjects (55 sampled) with CD8+ T cell response to the peptide, ELISpot and follow-up ICS. As to the method:
ELISPOT technology was used to further identify individual peptides.
High throughput intracellular cytokine staining-flow cytometry (ICS) was used to detect IFN-γ, IL-2, TNF-α expression in CD8+ T cells following 6 h exposure of PBMC with HSV-2 peptides (or control antigen) in the presence of co-stimulatory antibodies (α-CD28/α-CD49d) and Brefeldin A. Cytokine responses to peptide antigen were scored positive if they differed from the negative control (p<0.02; Fisher's one-sided test); this cutoff was defined during trial and error validation studies with HSV-2 seronegative subjects and allows for a 5% false positive error rate. Peptide pools giving positive responses by ICS in HSV-2 seropositive subjects were deconvoluted using IFN-γ ELISpot to identify the causative peptide. Deconvolution cutoff was determined as at least 11 spots per well and 3-fold higher spots than DMSO (negative) control.

The subject of experiment [1] is HSV-2 specific CD8+ T cells. Put plainly: CFSE proliferation of peptide exposed PBMC (cell division index). The settings on record: CFSE stained PBMC; CDI>2 cut-off for proliferation positivity. The class given is cell-based, human. The source says: To evaluate the proliferative capacity of HSV-2 specific CD8+ T cells, we utilized CFSE to stain PBMC prior to epitope specific stimulation. […] CD8+ T cells that recognized UL4945-49 did proliferate (CDI=8.7), but CDI values were below threshold for peptides UL4981-96, UL4993-108 and UL49129-143 (respective CDI=1.8, 1.4 and 1.6). Since T cells specific for UL4945-49 are more abundant that those specific for the other epitopes, the ability of these cells to proliferate likely reflects the epitope dominance observed within UL49.

The subject of experiment [2] is HSV-2 specific CD8+ T cells. Particulars: one individual with four HLA-B07 restricted UL49 epitopes; versus other tested epitopes. The procedure: Identified single peptides were used to individually stimulate CD8+ T cells in subjects with multiple epitopes. These responses were analyzed by ICS to determine the polyfunctional profiles of HSV-2 specific T cells. Single peptides were also used to assess degranulation; the presence of lytic proteins granzyme B and perforin, in HSV-2 specific CD8+ T cells, was determined by flow cytometry. The proliferative capacities of HSV-2 specific T cells were determined by pre-staining peptide exposed PBMC with CFSE. A cell division index (CDI)>2 was used as a cut-off for proliferation positivity.
Single peptides identified during this study were used to activate epitope specific CD8+ T cells. Antigen specific CD8+ T cells were identified using a gating strategy. […] The polyfunctional profiles of responding cells, with reference to the expression of IFN-γ, IL2, and TNF-α, and the mobilization of CD107a were determined.

On to “9 mer: 9 amino acid minimal epitope at amino acids 372-380 of HSV-2 UL25 (FLWEDQTLL; herpes simplex virus 2)”, for which the “antigenicity for persons with HLA A*0201, A*0202 or other HLA-A2 subtypes” value in the experiment on CD8+ T cells was “repeatedly and strongly positive”.
“AFEDRSYPAVFYLLQ (herpes simplex virus 2)”: the “# SUBJECTS” value in the experiment on CD8+ T cells stood at 1.
On to “AQREAAGVYDAVRTW (herpes simplex virus 2)”, for which, in the experiment with CD8+ T cells, the “# SUBJECTS” value is 2.
Turning to “ARPRRSASVAGSHGPG (herpes simplex virus 2)”, the “# SUBJECTS” value with CD8+ T cells was determined as 2. Also, the “CDI (cell division index)” value in experiment [1] worked out at 1.8.
CPLLIFDRTRKFVLA: the “# SUBJECTS” value in the experiment with CD8+ T cells stood at 1.
As to DFIWTGNPRTAPRSL, the “# SUBJECTS” value with CD8+ T cells is on record as 2.
Consider DMETGHIGAYVVLVD, for which the “# SUBJECTS” value in the experiment with CD8+ T cells is on record as 1.
With “DRLDNRLQLGMLIPG (herpes simplex virus 2)”, in the experiment with CD8+ T cells, the “# SUBJECTS” value is 1.
As for EAGLMDAATPPARPPA, the “# SUBJECTS” value in the experiment on CD8+ T cells was found to be 1.
On to “FGGHYMESVFQMYTR (herpes simplex virus 2)”, for which the “# SUBJECTS” value in the experiment on CD8+ T cells came out at 1.
As to GHIGAYVVLVDQTGN, the “# SUBJECTS” value in the experiment with CD8+ T cells is reported as 1.
On the same count and under the same terms, the result for “GVLVHLRIRTREASF (herpes simplex virus 2)” reads 1.
For the substance “HGPGPARAPPPPGGPV (herpes simplex virus 2)”, the “# SUBJECTS” value in the experiment with CD8+ T cells was found to be 1. The “CDI (cell division index)” value in experiment [1] is given as 1.4.
On to HNLFLWEDQTLLRAT, for which, in the experiment on CD8+ T cells, the “antigenicity for persons with HLA A*0201, A*0202 or other HLA-A2 subtypes” value is “repeatedly and strongly positive”; the “# SUBJECTS” value worked out at 5.
For “KNLLORANELVNPDA: 15-mer epitope, amino acids 249-263 of HSV-2 UL49”, the “# SUBJECTS” value in the experiment with CD8+ T cells is 1.
As to “KTSNALCVRGARPFS (herpes simplex virus 2)”, the “# SUBJECTS” value in the experiment with CD8+ T cells is listed as 1.
Turning to LHPFCIPCMKTWIPL, the “# SUBJECTS” value in the experiment on CD8+ T cells worked out at 1.
Take “LMLEYFCRCAREESK (herpes simplex virus 2)”: the “# SUBJECTS” value in the experiment with CD8+ T cells was 1.
Still for that read-out and setting: the result for LPIAGVSSVVALAPY reads 1.
As for “PKASATPATDPARGR (herpes simplex virus 2)”, the “# SUBJECTS” value in the experiment on CD8+ T cells was 1. In addition, the “CDI (cell division index)” value in experiment [1] was 1.6.
As for PMRARPRGEVRFLHY, the “# SUBJECTS” value in the experiment with CD8+ T cells is 6. The “response in Elispot and ICS assays” value with CD8+ T cells (one individual with four HLA-B07 restricted epitopes within UL49, versus other UL49 epitopes) was “largest detectable response”. Moreover, in experiment [2], the “CD107a positive cells among responding cells” value is “less CD107a positive cells relative to IFN-γ+ cells”, the “cytokine levels in responding cells” value is given as “higher levels of IFN-γ” and the “monofunctional cells among responding cells” value was “less monofunctional cells”. The “CDI (cell division index)” value in experiment [1] is reported as 8.7.
Take PVGNMLFDQGTLVGA: in the experiment on CD8+ T cells, the “# SUBJECTS” value came out at 1.
As for RAAAPAWSRRTLLPE, the “# SUBJECTS” value with CD8+ T cells was 3.
For the substance “RLGPADRRFVALSGS (herpes simplex virus 2)”, the “# SUBJECTS” value with CD8+ T cells was 3.
In the case of “SMSLADFHGEEFEKL (herpes simplex virus 2)”, the “# SUBJECTS” value with CD8+ T cells turned out to be 1.
